Reference: patent publication US10100049B2, “JAK kinase inhibitor compounds for treatment of respiratory disease” (THERAVANCE BIOPHARMA R&D IP, LLC, priority 2015, dated 2018)

Legend:
[1] = system: IL-13 induced STAT6 phosphorylation in BEAS-2B human lung epithelial cells; experiment: AlphaScreen cellular potency assay, IL-13 induced STAT6 phosphorylation in BEAS-2B cells; format: cell-based; details: IL-13 induced STAT6 phosphorylation, BEAS-2B cells; for IC50: Homo sapiens, read-out: BEAS-2B pIC50 (converted)
Method: The AlphaScreen JAM cellular potency assay was carried out by measuring interleukin-13 (IL-13, R&D Systems) induced STAT6 phosphorylation in BEAS-2B human lung epithelial cells (ATCC). The anti-STAT6 antibody (Cell Signaling Technologies) was conjugated to AlphaScreen acceptor beads (Perkin Elmer), while the anti-pSTAT6 (pTyr641) antibody (Cell Signaling Technologies) was biotinylated using EZ-Link Sulfo-NHS-Biotin (Thermo Scientific).
BEAS-2B cells were grown at 37° C. in a 5% CO2 humidified incubator in 50% DMEM/50% F-12 medium (Life Technologies) supplemented with 10% FBS (Hyclone), 100 U/mL penicillin, 100 μg/mL streptomycin (Life Technologies), and 2 mM GlutaMAX (Life Technologies). On day 1 of the assay, cells were seeded at a 7,500 cells/well density in white poly-D-lysine-coated 384-well plates (Corning) with 25 μL medium, and were allowed to adhere overnight in the incubator. On day 2 of the assay, the medium was removed and replaced with 12 μL of assay buffer (Hank's Balanced Salt Solution/HBSS, 25 mM HEPES, and 1 mg/ml bovine serum albumin/BSA) containing dose-responses of test compounds. Compounds were serially diluted in DMSO and then diluted another 1000-fold in media to bring the final DMSO concentration to 0.1%. Cells were incubated with test compounds at 37° C. for 1 h, and followed by the addition of 12 μl of pre-warmed IL-13 (80 ng/ml in assay buffer) for stimulation. After incubating at 37° C. for 30 min, the assay buffer (containing compound and IL-13) was removed, and 10 μl of cell lysis buffer (25 mM HEPES, 0.1% SDS, 1% NP-40, 5 mM MgCl2, 1.3 mM EDTA, 1 mM EGTA, and supplement with Complete Ultra mini protease inhibitors and PhosSTOP from Roche Diagnostics). The plates were shaken at ambient temperature for 30 min before the addition of detection reagents. A mixture of biotin-anti-pSTAT6 and anti-STAT6 conjugated acceptor beads was added first and incubated at ambient temperature for 2 h, followed by the addition of streptavidin conjugated donor beads (Perkin Elmer). After a minimum of 2 h incubation, the assay plates were read on the EnVision plate reader.
Results were expressed as the negative logarithm of the IC50 value, pIC50.

[2] = biological target: JAK2 (Homo sapiens (Human), UniProt O60674)
[3] = Pharmacokinetics in plasma and lung in mouse; format: in vivo; details: oral aspiration 0.2 mg/mL 50 uL, lung AUC (μg hr/g) / plasma AUC (μg hr/mL)
Method: Plasma and lung levels of test compounds and ratios thereof were determined in the following manner. BALB/c mice from Charles River Laboratories were used in the assay. Test compounds were individually formulated in 20% propylene glycol in pH 4 citrate buffer at a concentration of 0.2 mg/mL and 50 uL of the dosing solution was introduced into the trachea of a mouse by oral aspiration. At various time points (typically 0.167, 2, 6, 24 hr) post dosing, blood samples were removed via cardiac puncture and intact lungs were excised from the mice. Blood samples were centrifuged (Eppendorf centrifuge, 5804R) for 4 minutes at approximately 12,000 rpm at 4° C. to collect plasma. Lungs were padded dry, weighed, and homogenized at a dilution of 1:3 in sterile water. Plasma and lung levels of test compound were determined by LC-MS analysis against analytical standards constructed into a standard curve in the test matrix. A lung to plasma ratio was determined as the ratio of the lung AUC in μg hr/g to the plasma AUC in μg hr/mL, where AUC is conventionally defined as the area under the curve of test compound concentration vs. time.

[4] = system: IL-13 induced pSTAT6 in lung tissue; experiment: Murine model of IL-13 induced pSTAT6 induction in lung tissue; format: in vivo; details: mouse lung; for pSTAT6 inhibition Assay 5 / inhibition in vivo at 500 µg/mL: 0.5 mg/mL, 50 μL oral aspiration, IL-13 challenge 4 h after dosing, lungs collected 1 h later; for inhibition in vivo at 500 µg/mL: read-out: pSTAT6 inhibition Assay 5
Method: Il-13 is an important cytokine underlying the pathophysiology of asthma (Kudlacz et al. Eur. J. Pharmacol, 2008, 582, 154-161). IL-13 binds to cell surface receptors activating members of the Janus family of kinases (JAK) which then phosphorylate STAT6 and subsequently activates further transcription pathways. In the described model, a dose of IL-13 was delivered locally into the lungs of mice to induce the phosphorylation of STAT6 (pSTAT6) which is then measured as the endpoint.
Adult balb/c mice from Harlan were used in the assay. On the day of study, animals were lightly anesthetized with isoflurane and administered either vehicle or test compound (0.5 mg/mL, 50 μL total volume over several breaths) via oral aspiration. Animals were placed in lateral recumbency post dose and monitored for full recovery from anesthesia before being returned to their home cage. Four hours later, animals were once again briefly anesthetized and challenged with either vehicle or IL-13 (0.03 μg total dose delivered, 50 μL total volume) via oral aspiration before being monitored for recovery from anesthesia and returned to their home cage. One hour after vehicle or IL-13 administration, lungs were collected for both pSTAT6 detection using an anti-pSTAT6 ELISA (rabbit mAb capture/coating antibody; mouse mAb detection/report antibody: anti-pSTAT6-pY641; secondary antibody: anti-mouse IgG-HRP) and analyzed for total drug concentration as described above in Assay 4.
Selected compounds of the invention were tested in the assay. Activity in the model is evidenced by a decrease in the level of pSTAT6 present in the lungs of treated animals at 5 hours compared to the vehicle treated, IL-13 challenged control animals. The difference between the control animals which were vehicle-treated, IL-13 challenged and the control animals which were vehicle-treated, vehicle challenged dictated the 0% and 100% inhibitory effect, respectively, in any given experiment.

[5] = biological target: JAK3 (Homo sapiens (Human), UniProt P52333); experiment: LanthaScreen JAK biochemical assay (JAK3); details: ATP at Km 1.6 μM; read-out: JAK 3 (pKi) (converted)
[6] = biological target: Tyk2 (Homo sapiens (Human), UniProt P29597); experiment: LanthaScreen JAK biochemical assay (Tyk2); details: read-out: Tyk 2 (PKi); note: ATP at Km 10 µM
Chain of Tyk2 (P29597 whole entry): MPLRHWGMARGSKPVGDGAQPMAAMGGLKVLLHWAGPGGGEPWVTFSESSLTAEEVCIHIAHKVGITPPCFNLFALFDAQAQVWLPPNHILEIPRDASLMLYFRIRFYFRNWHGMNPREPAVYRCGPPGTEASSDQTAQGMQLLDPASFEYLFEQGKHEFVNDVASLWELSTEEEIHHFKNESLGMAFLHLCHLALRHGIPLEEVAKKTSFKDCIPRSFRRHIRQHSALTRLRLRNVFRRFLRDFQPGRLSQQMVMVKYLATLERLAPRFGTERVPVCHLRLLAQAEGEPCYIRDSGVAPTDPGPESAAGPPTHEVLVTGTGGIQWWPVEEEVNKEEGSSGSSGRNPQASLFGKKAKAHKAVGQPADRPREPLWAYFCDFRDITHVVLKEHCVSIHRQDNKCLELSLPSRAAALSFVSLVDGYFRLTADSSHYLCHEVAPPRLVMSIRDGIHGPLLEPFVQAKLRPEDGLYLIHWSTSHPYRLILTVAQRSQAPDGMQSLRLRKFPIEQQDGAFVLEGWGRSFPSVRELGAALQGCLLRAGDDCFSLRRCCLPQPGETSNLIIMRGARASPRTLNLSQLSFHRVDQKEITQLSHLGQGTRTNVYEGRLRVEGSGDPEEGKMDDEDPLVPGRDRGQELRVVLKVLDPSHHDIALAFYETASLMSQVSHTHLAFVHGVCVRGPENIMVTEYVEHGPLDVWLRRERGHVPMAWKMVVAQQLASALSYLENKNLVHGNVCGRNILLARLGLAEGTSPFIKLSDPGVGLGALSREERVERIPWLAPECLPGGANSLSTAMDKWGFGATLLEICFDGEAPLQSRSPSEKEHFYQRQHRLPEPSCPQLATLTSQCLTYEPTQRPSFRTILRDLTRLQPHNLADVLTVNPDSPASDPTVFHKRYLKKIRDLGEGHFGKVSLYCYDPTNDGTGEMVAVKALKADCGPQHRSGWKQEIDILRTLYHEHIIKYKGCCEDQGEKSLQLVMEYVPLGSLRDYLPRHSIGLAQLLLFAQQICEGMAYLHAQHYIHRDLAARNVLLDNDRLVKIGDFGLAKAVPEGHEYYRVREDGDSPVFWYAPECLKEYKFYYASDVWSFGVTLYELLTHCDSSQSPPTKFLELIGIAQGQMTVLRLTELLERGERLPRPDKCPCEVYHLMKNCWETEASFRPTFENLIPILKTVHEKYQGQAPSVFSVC

Chain of JAK2 (O60674 whole entry): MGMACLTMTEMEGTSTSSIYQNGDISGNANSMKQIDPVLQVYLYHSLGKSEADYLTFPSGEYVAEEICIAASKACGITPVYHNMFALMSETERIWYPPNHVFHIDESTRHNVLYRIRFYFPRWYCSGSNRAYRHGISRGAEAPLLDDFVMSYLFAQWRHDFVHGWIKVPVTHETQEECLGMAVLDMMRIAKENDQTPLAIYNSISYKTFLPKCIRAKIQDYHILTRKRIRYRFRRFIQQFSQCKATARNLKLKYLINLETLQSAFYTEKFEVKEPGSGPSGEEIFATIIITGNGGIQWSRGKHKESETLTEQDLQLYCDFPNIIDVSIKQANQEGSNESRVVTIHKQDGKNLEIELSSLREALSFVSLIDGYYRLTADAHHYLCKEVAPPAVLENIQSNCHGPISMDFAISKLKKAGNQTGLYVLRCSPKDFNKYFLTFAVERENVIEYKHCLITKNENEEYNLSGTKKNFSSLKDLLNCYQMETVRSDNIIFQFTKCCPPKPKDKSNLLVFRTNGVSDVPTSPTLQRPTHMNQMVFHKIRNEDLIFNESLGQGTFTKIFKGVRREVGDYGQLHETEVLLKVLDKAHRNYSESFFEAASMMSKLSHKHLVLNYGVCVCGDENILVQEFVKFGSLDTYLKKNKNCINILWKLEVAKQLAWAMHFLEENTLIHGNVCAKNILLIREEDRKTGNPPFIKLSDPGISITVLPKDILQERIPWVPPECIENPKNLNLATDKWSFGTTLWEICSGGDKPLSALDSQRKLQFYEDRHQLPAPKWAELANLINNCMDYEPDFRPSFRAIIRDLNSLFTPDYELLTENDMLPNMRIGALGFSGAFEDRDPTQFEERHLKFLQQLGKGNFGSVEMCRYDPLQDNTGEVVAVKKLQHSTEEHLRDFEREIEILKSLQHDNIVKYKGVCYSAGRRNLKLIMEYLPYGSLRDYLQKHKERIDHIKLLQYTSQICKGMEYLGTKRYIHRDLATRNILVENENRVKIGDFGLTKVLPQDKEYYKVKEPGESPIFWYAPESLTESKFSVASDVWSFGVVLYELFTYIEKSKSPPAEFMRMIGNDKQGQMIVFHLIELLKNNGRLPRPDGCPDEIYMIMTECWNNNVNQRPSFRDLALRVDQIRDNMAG
Chain of JAK3 (P52333 whole entry): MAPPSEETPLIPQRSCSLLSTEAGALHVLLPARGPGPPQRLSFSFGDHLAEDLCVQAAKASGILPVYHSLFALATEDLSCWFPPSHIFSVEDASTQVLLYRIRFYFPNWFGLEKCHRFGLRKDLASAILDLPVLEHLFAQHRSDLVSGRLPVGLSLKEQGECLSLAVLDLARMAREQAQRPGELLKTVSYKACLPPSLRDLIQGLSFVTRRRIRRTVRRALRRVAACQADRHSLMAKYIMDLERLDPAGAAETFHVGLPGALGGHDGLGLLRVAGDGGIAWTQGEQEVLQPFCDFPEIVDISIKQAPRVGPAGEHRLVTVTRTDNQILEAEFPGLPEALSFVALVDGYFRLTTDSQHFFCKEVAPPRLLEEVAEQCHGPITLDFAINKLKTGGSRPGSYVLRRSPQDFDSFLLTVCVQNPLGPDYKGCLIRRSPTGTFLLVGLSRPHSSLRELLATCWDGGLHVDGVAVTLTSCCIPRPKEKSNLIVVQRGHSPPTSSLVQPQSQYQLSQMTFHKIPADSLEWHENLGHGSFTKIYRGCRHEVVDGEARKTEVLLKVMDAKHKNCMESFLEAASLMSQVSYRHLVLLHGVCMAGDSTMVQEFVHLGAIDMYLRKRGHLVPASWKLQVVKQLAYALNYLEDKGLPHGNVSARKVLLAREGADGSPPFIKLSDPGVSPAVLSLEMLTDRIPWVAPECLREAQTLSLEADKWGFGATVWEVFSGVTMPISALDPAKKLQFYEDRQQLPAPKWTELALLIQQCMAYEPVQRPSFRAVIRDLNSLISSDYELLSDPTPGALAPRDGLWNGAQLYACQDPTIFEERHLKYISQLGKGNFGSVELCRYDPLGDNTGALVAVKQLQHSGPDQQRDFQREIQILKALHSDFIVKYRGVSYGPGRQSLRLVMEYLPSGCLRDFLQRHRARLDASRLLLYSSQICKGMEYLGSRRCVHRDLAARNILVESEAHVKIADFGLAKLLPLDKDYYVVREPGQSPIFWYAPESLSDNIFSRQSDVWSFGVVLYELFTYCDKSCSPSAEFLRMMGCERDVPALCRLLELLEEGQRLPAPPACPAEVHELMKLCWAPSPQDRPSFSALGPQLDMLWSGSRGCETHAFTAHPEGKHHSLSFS

Compound	BEAS-2B pIC50 [1]	Ki [2] [nM]	Lung to Plasma ratio Assay 4 [3]	IC50 [1] [nM]	inhibition in vivo at 500 µg/mL [4] [%]	also measured
CCc1cc(O)c(F)cc1-c1ccc2c(-c3nc4c([nH]3)CCN(C3CN(CCO)C3)C4)n[nH]c2c1 [Example 1-1]	B (B represents a pIC50 value between 7.4 and 8 (IC50 between 40 nM and 10 nM))	< 0.1	–	–	–	–
CCc1cc(O)c(F)cc1-c1ccc2c(-c3nc4c([nH]3)CCN(C3CN(CC)C3)C4)n[nH]c2c1 [Example 1-3]	B (B represents a pIC50 value between 7.4 and 8 (IC50 between 40 nM and 10 nM))	< 0.1	–	–	–	–
CCc1cc(O)c(F)cc1-c1ccc2c(-c3nc4c([nH]3)CCN(C3CN(CCOC)C3)C4)n[nH]c2c1 [Example 1-6]	A (A represents a pIC50 value ≥8 (IC50≤10 nM))	< 0.1	–	–	–	–
CCc1cc(O)c(F)cc1-c1ccc2c(-c3nc4c([nH]3)CCN(C3CN(CCCOC)C3)C4)n[nH]c2c1 [Example 1-7]	–	–	B (B denotes a ratio between 50 and 100)	–	–	pSTAT6 inhibition Assay 5 [4]: C (C represents between 33% and 50% inhibition)
CCc1cc(O)c(F)cc1-c1ccc2c(-c3nc4c([nH]3)CCN(C3CN(CCC#N)C3)C4)n[nH]c2c1 [Example 1-8]	A (A represents a pIC50 value ≥8 (IC50≤10 nM))	< 0.1	–	–	–	–
CCc1cc(O)c(F)cc1-c1ccc2c(-c3nc4c([nH]3)CCN(C3CN(CC(C)C)C3)C4)n[nH]c2c1 [Example 1-11]	–	–	C (C denotes a ratio between 10 and 50)	–	–	pSTAT6 inhibition Assay 5 [4]: C (C represents between 33% and 50% inhibition)
CCc1cc(O)c(F)cc1-c1ccc2c(-c3nc4c([nH]3)CCN(C3CN(C5CCS(=O)(=O)C5)C3)C4)n[nH]c2c1 (stereo not shown) [Example 1-15]	–	–	–	–	–	pSTAT6 inhibition in the pharmacodynamic assay [4]: exceptions
CCc1cc(O)c(F)cc1-c1ccc2c(-c3nc4c([nH]3)CCN(C3CN(CC5CC5)C3)C4)n[nH]c2c1 [Example 1-18]	–	–	B (B denotes a ratio between 50 and 100)	–	–	pSTAT6 inhibition Assay 5 [4]: C (C represents between 33% and 50% inhibition)
CCc1cc(O)c(F)cc1-c1ccc2c(-c3nc4c([nH]3)CCN(C3CCNCC3)C4)n[nH]c2c1 [Example 2-3]	B (B represents a pIC50 value between 7.4 and 8 (IC50 between 40 nM and 10 nM))	< 0.1	–	–	–	–
CCc1cc(O)c(F)cc1-c1ccc2c(-c3nc4c([nH]3)CCN(CCNC3(C#N)CC3)C4)n[nH]c2c1 [Example 3-1]	–	–	–	–	–	pSTAT6 inhibition in the pharmacodynamic assay [4]: exceptions
CCc1cc(O)c(F)cc1-c1ccc2c(-c3nc4c([nH]3)CCN(CCN(C)CC(C)C)C4)n[nH]c2c1 [Example 3-33]	–	–	A (A denotes a ratio >100)	–	–	pSTAT6 inhibition Assay 5 [4]: C (C represents between 33% and 50% inhibition)
CCc1cc(O)c(F)cc1-c1ccc2c(-c3nc4c([nH]3)CCN(C3CN(C(C)CC)C3)C4)n[nH]c2c1 (stereo not shown) [Example 4, 4-(3-(5-(1-(sec-butyl)azetidin-3-yl)-4,5,6,7-tetrahydro-1H-imidazo[4,5-c]pyridin-2-yl)-1H-indazol-6-yl)-5-ethyl-2-fluorophenol]	–	–	B (B denotes a ratio between 50 and 100)	< 10	> 65	–
CCc1cc(O)c(F)cc1-c1ccc2c(-c3nc4c([nH]3)CCN(C3CN(C5CC5)C3)C4)n[nH]c2c1 [Example 5, 4-(3-(5-(1-cyclopropylazetidin-3-yl)-4,5,6,7-tetrahydro-1H-imidazo[4,5-c]pyridin-2-yl)-1H-indazol-6-yl)-5-ethyl-2-fluorophenol]	–	< 0.1	C (C denotes a ratio between 10 and 50)	< 10	> 65	Ki [5]: 0.1 to 1 nM; Ki [6]: 0.316 to 1 nM
CCc1cc(O)c(F)cc1-c1ccc2c(-c3nc4c([nH]3)CCN(CCN(C)CC)C4)n[nH]c2c1 [Example 9, 5-ethyl-4-(3-(5-(2-(ethyl(methyl)amino)ethyl)-4,5,6,7-tetrahydro-1H-imidazo[4,5-c]pyridin-2-yl)-1H-indazol-6-yl)-2-fluorophenol]	–	< 0.1	B (B denotes a ratio between 50 and 100)	< 10	50 to 65	Ki [6]: 0.316 to 1 nM
CCc1cc(O)c(F)cc1-c1ccc2c(-c3nc4c([nH]3)CCN(C3CCNC3)C4)n[nH]c2c1 (stereo not shown) [Example 9-1]	B (B represents a pIC50 value between 7.4 and 8 (IC50 between 40 nM and 10 nM))	< 0.1	–	–	–	–
CCc1cc(O)c(F)cc1-c1ccc2c(-c3nc4c([nH]3)CCN(C3CCN(C)C3)C4)n[nH]c2c1 (stereo not shown) [Example 9-2]	–	< 0.1	–	< 10	–	Ki [6]: 0.316 to 1 nM
CCc1cc(O)c(F)cc1-c1ccc2c(-c3nc4c([nH]3)CCN(CCN(C)C(C)CC)C4)n[nH]c2c1 (stereo not shown) [Example 10, 4-(3-(5-(2-(sec-butyl(methyl)amino)ethyl)-4,5,6,7-tetrahydro-1H-imidazo[4,5-c]pyridin-2-yl)-1H-indazol-6-yl)-5-ethyl-2-fluorophenol]	–	< 0.1	B (B denotes a ratio between 50 and 100)	< 10	33 to 50	Ki [5]: 0.1 to 1 nM; Ki [6]: 0.1 to 1 nM
CCc1cc(O)c(F)cc1-c1ccc2c(-c3nc4c([nH]3)CCN(CC(F)CN(C)C)C4)n[nH]c2c1 (stereo not shown) [Example 12, 4-(3-(5-(3-(dimethylamino)-2-fluoropropyl)-4,5,6,7-tetrahydro-1H-imidazo[4,5-c]pyridin-2-yl)-1H-indazol-6-yl)-5-ethyl-2-fluorophenol]	–	< 0.1	C (C denotes a ratio between 10 and 50)	< 10	33 to 50	Ki [5]: 0.1 to 1 nM; Ki [6]: 0.316 to 1 nM
CCc1cc(O)c(F)cc1-c1ccc2c(-c3nc4c([nH]3)CCN(C[C@@H]3COCCN3)C4)n[nH]c2c1 [Example 14, (R)-5-Ethyl-2-fluoro-4-(3-(5-(morpholin-3-ylmethyl)-4,5,6,7-tetrahydro-1H-imidazo[4,5-c]pyridin-2-yl)-1H-indazol-6-yl)phenol]	–	< 0.1	A (A denotes a ratio >100)	< 10	> 65	–
CCc1cc(O)c(F)cc1-c1ccc2c(-c3nc4c([nH]3)CCN(CC3CNC3)C4)n[nH]c2c1 [Example 14-7]	B (B represents a pIC50 value between 7.4 and 8 (IC50 between 40 nM and 10 nM))	< 0.1	A (A denotes a ratio >100)	–	–	pSTAT6 inhibition Assay 5 [4]: B (B represents between 50% and 65% inhibition)
CCc1cc(O)c(F)cc1-c1ccc2c(-c3nc4c([nH]3)CCN(CCN3CCC[C@@H]3C)C4)n[nH]c2c1 [Example 15, (S)-5-ethyl-2-fluoro-4-(3-(5-(2-(2-methylpyrrolidin-1-yl)ethyl)-4,5,6,7-tetrahydro-1H-imidazo[4,5-c]pyridin-2-yl)-1H-indazol-6-yl)phenol]	–	< 0.1	A (A denotes a ratio >100)	< 10	50 to 65	Ki [5]: 0.1 to 1 nM; Ki [6]: 0.316 to 1 nM
CCc1cc(O)c(F)cc1-c1ccc2c(-c3nc4c([nH]3)CCN(CCN3CCCC3)C4)n[nH]c2c1 [Example 16, 5-Ethyl-2-fluoro-4-(3-(5-(2-(pyrrolidin-1-yl)ethyl)-4,5,6,7-tetrahydro-1H-imidazo[4,5-c]pyridin-2-yl)-1H-indazol-6-yl)phenol]	–	< 0.1	–	< 10	–	–
